# Measurements as given in patent publication US9505725B2, “Crystalline and mesomorphous forms of an AKT inhibiting pyrimidinyl-cyclopentane compound, compositions and methods thereof” (priority 2012, dated 2016).
# Read-outs that look alike come from different tables or passages of the source.
# Legend:
# [1] = Hygroscopicity / water sorption analysis; format: physicochemical; settings: continuous water sorption profile at 25° C. from 0-90% RH
# [2] = Variable temperature XRPD (thermal stability of the solid form); format: physicochemical; settings: heating, XRPD as a function of temperature
# Protocol: Heating the product of Example 1 leads to loss in structure (diffracted peaks start to disappear in the 100-160° C. range) and the solid-state form becomes amorphous.
# At temperatures ≧80° C., there is substantial loss of crystallinity. In both samples, they appear to be X-ray amorphous at 90° C. and above (due to melting of the lattice solvent and dissolution of the solid phase in it as confirmed by hot stage microscopy).
# [3] = XRPD after exposure to water vapor (relative humidity); format: physicochemical; settings: room temperature, different RH conditions, 5-7 days
# [4] = Critical micelle concentration in propylene glycol caprylate (Capryol 90); format: physicochemical; settings: in propylene glycol caprylate (e.g., Capryol 90)
# Protocol: Such high doses are generally unachievable with active pharmaceutical ingredients in the lipid like liquid fill solvent systems. […] The critical micelle concentration for GDC-0068 in propylene glycol caprylate (e.g., Capryol 90™) was determined to be 0.945 g/g.
# [5] = forms isolated in Example 14 of U.S. Pat. No. 8,063,050; cited from earlier work
# [6] = Solubility in solvents, antisolvents and liquid fill solvents; format: physicochemical; settings: organic solvent or mixture
# Source text: In one example, antisolvents include pentane, hexane, cyclohexane, heptane, ethyl acetate, iso-propyl acetate, methyl t-butyl ether (MTBE) and methyl iso-butyl ketone.
# In one example, solvents include water, alcohols such as methanol, ethanol, isopropanol, 2-butanol, t-butanol and 2-methoxy ethanol, polar ethers such as tetrahydrofuran and 2-methyltetrahydrofuran, toluene, chloroform, dichloromethane, 1,2-dichloroethane and acetone.
smiles,measurement,setting,value
"CC(C)NC[C@@H](C(=O)N1CCN(c2ncnc3c2[C@H](C)C[C@H]3O)CC1)c1ccc(Cl)cc1.Cl [Example 1, (S)-2-(4-chlorophenyl)-1-(4-((5R,7R)-7-hydroxy-5-methyl-6,7-dihydro-5H-cyclopenta[d]pyrimidin-4-yl)piperazin-1-yl)-3-(isopropylamino)propan-1-one monohydrochloride]",deliquescence point,[1],~75 % RH
same,"temperature range in which diffracted peaks start to disappear (loss in structure, becomes amorphous)",[2],100-160 °C
same,effect of water vapor exposure on crystallinity,[3],loses crystallinity
"CC(C)NC[C@@H](C(=O)N1CCN(c2ncnc3c2[C@H](C)C[C@H]3O)CC1)c1ccc(Cl)cc1 [GDC-0068, (S)-2-(4-chlorophenyl)-1-(4-((5R,7R)-7-hydroxy-5-methyl-6,7-dihydro-5H-cyclopenta[d]pyrimidin-4-yl)piperazin-1-yl)-3-(isopropylamino)propan-1-one]",critical micelle concentration,[4],0.945 g/g
same,hygroscopicity,[5],hygroscopic
"CC(C)NC[C@@H](C(=O)N1CCN(c2ncnc3c2[C@H](C)C[C@H]3O)CC1)c1ccc(Cl)cc1.Cl [compound of formula I, (S)-2-(4-chlorophenyl)-1-(4-((5R,7R)-7-hydroxy-5-methyl-6,7-dihydro-5H-cyclopenta[d]pyrimidin-4-yl)piperazin-1-yl)-3-(isopropylamino)propan-1-one monohydrochloride]",solubility,"[6]; antisolvents (organic liquids), pentane, hexane, cyclohexane, heptane, ethyl acetate, iso-propyl acetate, MTBE, methyl iso-butyl ketone, read-out: solubility in antisolvents",< 20 mg/mL
same,solubility,"[6]; solvents (water and organic liquids), water, methanol, ethanol, isopropanol, 2-butanol, t-butanol, 2-methoxy ethanol, THF, 2-methyltetrahydrofuran, toluene, chloroform, dichloromethane, 1,2-dichloroethane, acetone, read-out: solubility in solvents",> 20 mg/mL
